Assay results as given in the supplement of paper PMC10307832.

What was measured:
Assay in all cases: relative viability (nuclei count vs DMSO), 5 days (fraction); higher = more cells survive
[1] = compound: C1/C(=C\C2=CC=CS2)/C(=O)/C(=C/C3=CC=CS3)/C1 + Nc1ncn([C@H]2C[C@H](O)[C@@H](CO)O2)c(=O)n1 [Decitabine] (partner 2 µM)
Summary of the method: (§1)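 Lung cancer cell lines, seeded in 1536-well plates, were treated the following day by pin tool with a single drug or with five library-drug doses (not always all listed) in √10 steps on top of a fixed anchor-drug dose. Cells were fixed and nuclei stained in one step after 5 days, and nuclei were counted. Relative viability is the nuclei count for treated wells divided by that for vehicle wells, reported as medians of duplicate plates.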

Lestaurtinib + OSI-027 = compound: C[C@]12O[C@H](C[C@]1(O)CO)n1c3ccccc3c3c4c(c5c6ccccc6n2c5c31)CNC4=O [Lestaurtinib] + COc1cccc2cc(-c3nc([C@H]4CC[C@H](C(=O)O)CC4)n4ncnc(N)c34)[nH]c12 [OSI-027] (partner 0.5 µM)
Summary of the method: as §1

[2] = compound: C1/C(=C\C2=CC=CS2)/C(=O)/C(=C/C3=CC=CS3)/C1 + CC(=O)c1c(C)c2cnc(Nc3ccc(N4CCNCC4)cn3)nc2n(C2CCCC2)c1=O [Palbociclib] (partner 0.5 µM)
Summary of the method: as §1

[3] = compound: C1/C(=C\C2=CC=CS2)/C(=O)/C(=C/C3=CC=CS3)/C1 + CS(=O)(=O)CCNCc1ccc(-c2ccc3ncnc(Nc4ccc(OCc5cccc(F)c5)c(Cl)c4)c3c2)o1 [Lapatinib] (partner 2 µM)
Summary of the method: as §1

With UMC-11 the relative viability ([1]; first compound 0.2 µM) was 0.752, the relative viability ([1]; first compound 0.6325 µM) was 0.653 and the relative viability ([1]; first compound 2 µM) was 0.637. For the same cell line, the relative viability ([1]; first compound 6.325 µM) was 0.513, the relative viability ([1]; first compound 20 µM) was 0.515 and the relative viability (Lestaurtinib + OSI-027; first compound 0.005 µM) was 0.48. It also gave a relative viability (Lestaurtinib + OSI-027; first compound 0.01581 µM) of 0.385, a relative viability (Lestaurtinib + OSI-027; first compound 0.05 µM) of 0.293 and a relative viability (Lestaurtinib + OSI-027; first compound 0.1581 µM) of 0.283. For the same cell line, the relative viability (Lestaurtinib + OSI-027; first compound 0.5 µM) was 0.177, the relative viability ([2]; first compound 0.2 µM) was 0.308 and the relative viability ([2]; first compound 0.6325 µM) was 0.367. For the same cell line, the relative viability ([2]; first compound 2 µM) was 0.322, the relative viability ([2]; first compound 6.325 µM) was 0.334 and the relative viability ([2]; first compound 20 µM) was 0.338. The relative viability ([3]; first compound 0.2 µM) was 0.88, the relative viability ([3]; first compound 0.6325 µM) was 0.98 and the relative viability ([3]; first compound 2 µM) was 1.19. For the same cell line, the relative viability ([3]; first compound 6.325 µM) was 0.628 and the relative viability ([3]; first compound 20 µM) was 1.1.
